The numbers were not newly measured in US20230121528A1, “SALMONELLA-BASED DNA VACCINES IN COMBINATION WITH AN ANTIBIOTIC” (VAXIMM AG, priority 2020, published 2023), which cites them from elsewhere.

In this series the test system is glioblastoma. To be noted: glioblastoma patients.

Consider “avastin: monoclonal antibody avastin targeting VEGF”, for which the survival benefit entry was “only showed benefits in progression free survival, but not in overall survival”.
